Measurements as given in patent US6632805B1, “Methods for using water-stabilized organosilanes” (Emory University, priority 1996, dated 2003).

Columns and labels:
[1] = Solubility in water and other solvents
[2] = Stability in water judged by appearance of the preparation (clear/hazy)

Row | SMILES | Appearance after addition to water containing pentaerythritol ([1]; water containing pentaerythritol, after standing overnight) | Solubility in water ([1]; water, no stabilizer) | Stability (appearance of the preparation) ([2]; initial pH 1.15, after 1 wk.) | Stability (appearance of the preparation) ([2]; initial pH 2.0, after 1 mo.) | Stability (appearance of the preparation) ([2]; initial pH 2.0, after 1 wk.) | Stability (appearance of the preparation) ([2]; initial pH 5.7, after 1 mo.) | Stability (appearance of the preparation) ([2]; initial pH 5.7, after 1 wk.) | Stability (appearance of the preparation) ([2]; initial pH 6.5, after 1 mo.) | Stability (appearance of the preparation) ([2]; initial pH 6.5, after 1 wk.) | Stability (appearance of the preparation) ([2]; initial pH 8.5, after 1 wk.)
1 | CO[Si](CCCCl)(OC)OC [Chloropropyl trimethoxysilane] | clear solution | insoluble | – | – | – | – | – | – | – | –
2 | CCCCCCCCCCCCCCCCCC[N+](C)(C)CCC[Si](OC)(OC)OC.[Cl-] [none] | – | – | hazy | hazy | clear | hazy | clear | hazy | clear | hazy/gel
